Reference: ChEMBL document CHEMBL5247643, “Discovery and Characterization of BAY-805, a Potent and Selective Inhibitor of Ubiquitin-Specific Protease USP21” (J Med Chem, 2023)
The source made the active and inactive calls. The rule behind the calls is not given here.

Biological target: T1, Ubiquitin carboxyl-terminal hydrolase 30 (Homo sapiens) (UniProt Q70CQ3)
T1 sequence (whole entry): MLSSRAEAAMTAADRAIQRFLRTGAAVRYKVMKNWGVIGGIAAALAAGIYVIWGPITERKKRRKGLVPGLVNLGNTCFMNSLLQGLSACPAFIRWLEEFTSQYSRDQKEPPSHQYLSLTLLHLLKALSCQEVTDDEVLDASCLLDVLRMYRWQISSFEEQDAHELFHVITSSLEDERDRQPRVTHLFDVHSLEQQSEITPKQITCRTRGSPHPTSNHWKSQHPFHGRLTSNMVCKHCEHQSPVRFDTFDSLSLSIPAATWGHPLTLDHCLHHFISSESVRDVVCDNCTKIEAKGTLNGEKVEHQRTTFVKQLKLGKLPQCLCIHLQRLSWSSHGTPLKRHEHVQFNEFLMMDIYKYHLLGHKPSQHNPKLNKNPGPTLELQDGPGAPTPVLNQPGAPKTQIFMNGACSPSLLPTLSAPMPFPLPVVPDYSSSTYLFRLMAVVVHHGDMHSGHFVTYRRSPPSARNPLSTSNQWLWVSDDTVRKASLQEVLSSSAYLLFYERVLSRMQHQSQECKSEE
Test: Inhibition of human USP30 using ubiquitin rhodamine 110 as substrate at 10 to 50 uM by fluorometric assay
Settings: dose 10-50 µM

inhibition: inactive
SMILES: CC(C)C[C@H](NC(=O)C1(C(F)(F)F)CCCCC1)C(=O)Nc1nnc(Cc2ccc(C#N)cc2)s1
